Results taken from a compilation of properties of binary mixtures (doi:10.5541/ijot.303607).

Test: xn = mol fraction of the nth substance listed
Conditions: 101 kPa

CC(O)C(=O)[O-].[NH3+]CCO (stereo not given) + CCO
speed of sound [m/s]
Conditions	x2 = 0.0543	x2 = 0.1051	x2 = 0.206	x2 = 0.3151	x2 = 0.4144	x2 = 0.5122	x2 = 0.6116	x2 = 0.7232	x2 = 0.8109	x2 = 0.9528
288.15 K	–	1848	1792.9	1727.2	–	1590.8	1514	–	1349.2	–
290.65 K	1863.7	1839.9	–	1720.3	1654.4	1586.3	1507.4	1416	1342	1219.2
293.15 K	1855.8	1832.1	1779	1713.6	–	–	1500.8	1409.1	1334.8	1211.3
295.65 K	1848.3	1824.7	1772.2	1707	1640.9	1573.7	1494	1402.2	1327.5	1203.3
298.15 K	–	–	1765.7	1700.7	1634.4	–	1487.3	1395.3	1320.3	1195.4
300.65 K	–	–	1765.7	1700.7	1634.4	1567.3	1487.3	1395.3	–	–
303.15 K	1828	1804.4	–	–	1621.5	1555	1474.1	–	1305.9	1179.5
305.65 K	1821.7	1798.1	1747.1	1682.1	–	–	1467.5	1374.7	1298.8	1171.5
308.15 K	–	1791.9	1741.1	1676	1608.8	1542.7	1461	1367.9	1291.6	1163.6
310.65 K	1809.5	1785.8	1735.2	1670	1602.6	1536.5	1454.5	–	1284.4	–
313.15 K	–	1779.7	1729.3	1664	1596.3	1530.3	1448	1354.3	1277.3	1147.8
315.65 K	–	1773.7	1723.4	1658	1590.1	1524.2	1441.5	1347.5	1270.2	–
318.15 K	–	1767.8	1717.5	–	1583.9	1518.1	1435	1340.8	1263.1	1132.2
320.65 K	1786.1	1762	1711.8	1646	–	1511.9	1428.6	–	1256.1	1124.5
323.15 K	1780.3	1756.1	1706	1640.2	1571.5	1505.7	1422.2	1327.3	1249	–

CC(O)C(=O)[O-].[NH3+]CCO (stereo not given) + CO
speed of sound [m/s]
Conditions	x2 = 0.0675	x2 = 0.1469	x2 = 0.2586	x2 = 0.3811	x2 = 0.4275	x2 = 0.518	x2 = 0.6083	x2 = 0.7069	x2 = 0.7972	x2 = 0.8985
288.15 K	1875.8	–	1802.2	1745.7	1721.2	1666.4	1603.6	1522	–	1301.9
290.65 K	1867.4	1839.5	1795.1	–	1715	1660	1597.9	1515.5	1422	1294.8
293.15 K	–	1831.9	1788.4	–	–	1653.7	1592	1509	1415.5	1287.8
295.65 K	1852.2	1824.6	–	1727.1	–	–	1586.1	–	1409	–
298.15 K	1845.1	1817.8	1775.2	–	1697	1641.3	1580.2	–	1402.4	–
300.65 K	1838.4	1811.2	1768.8	1715.2	1690.9	–	1574.2	1489.5	1395.8	1266.1
303.15 K	1831.9	1804.9	1762.6	1709.4	1685	–	–	1483	1389.3	1258.9
305.65 K	1825.7	1798.8	1756.6	1703.5	1679	1623.2	1562.1	1476.6	1382.8	1251.8
308.15 K	1819.6	1792.9	1750.5	1697.6	1673	1617.2	1556	–	1376.2	1244.6
310.65 K	1813.6	1787	1744.5	1691.7	1667.1	1611.2	1549.9	1463.8	1369.7	1237.5
313.15 K	1807.7	1781.1	–	1685.9	1661.1	1605.2	–	1457.3	–	–
315.65 K	1801.9	1775.2	1732.6	1680	–	1599.1	1537.6	1451	1356.6	1223.2
318.15 K	1796.2	–	1726.7	1674.2	1649.2	1593.1	1531.4	1444.5	–	1216.1
320.65 K	1790.5	1763.7	1720.8	1668.4	1643.4	1587.1	1525.2	1438.2	1343.6	1209
323.15 K	–	1758	1715	1662.7	–	1581.1	1519	1431.9	1337.2	1201.9

CC(O)C(=O)[O-].[NH3+]CCO (stereo not given) + O
speed of sound [m/s]
Conditions	x1 = 0.0088	x1 = 0.0135	x2 = 0.3197	x2 = 0.5253	x2 = 0.6892	x2 = 0.9027	x2 = 0.9293	x2 = 0.949	x2 = 0.9707
288.15 K	1513.4	–	–	1897.5	–	1778.8	1727.7	1676.5	1602.1
290.65 K	1520.5	1541.4	–	1891.7	1887.8	–	1728.5	1678.8	1606.7
293.15 K	1527.1	1547.4	1882.8	1886	1882.8	1776.9	1729	1680.8	–
295.65 K	1533.2	1553	1876.5	1880.3	1877.8	–	1729.3	1682.6	1614.6
298.15 K	1539	1558.2	1870.4	–	1872.8	1774.5	1729.4	1684.1	1618.1
300.65 K	1544.3	–	1864.4	1869.1	–	–	1729.3	–	1621.3
303.15 K	1549.2	1567.4	1858.5	1863.5	1862.7	–	1729	–	1624.1
305.65 K	1553.7	–	1852.6	1858	1857.7	–	1728.6	1687.2	1626.6
308.15 K	1557.8	1575.2	–	1852.5	1852.6	1767.7	1727.9	1687.7	1628.8
310.65 K	1561.5	–	1841.1	–	1847.5	–	1727	1688	1630.8
313.15 K	1565	–	1835.4	–	1842.3	1763.4	1726	1688.1	1632.4
315.65 K	1568	1584.1	1829.7	1835.9	–	1761.1	1724.7	1687.9	–
318.15 K	1570.7	1586.5	1824	–	1831.9	1758.6	–	1687.5	–
320.65 K	–	1588.5	1818.3	1824.8	1826.7	1756	–	–	1635.6
323.15 K	1575.1	1590.1	1812.7	–	–	1753.2	1719.9	1686.1	–
